Experimental data: ChEMBL document CHEMBL6083217, “Identification of isoquinolinone DHODH inhibitor isosteres” (Bioorg Med Chem Lett, 2024)
In brackets after ≈: the same amount, converted by molar mass.

How the values were obtained:
[1] = Metabolic stability in human liver microsomes assessed as half life; type: ADME, Microsome
[2] = Metabolic stability in mouse liver microsomes assessed as half life; type: ADME, Microsome
[3] = Solubility of compound at pH 7; type: physicochemical; settings: buffer
[4] = Solubility of compound in SGF at pH 1; type: physicochemical
[5] = Solubility of compound in FaSSIF at pH 6.5; type: physicochemical
[6] = Protein binding in human plasma; type: ADME, cell-free; settings: read-out: PPB (converted)
[7] = Protein binding in mouse plasma; type: ADME, cell-free; settings: read-out: PPB (converted)
[8] = Unbound clearance in C57BL mouse at 10 mg/kg, po or 2 mg/kg, iv; type: ADME, organism-based; settings: in vivo
[9] = Volume of distribution at steady state in C57BL mouse at 10 mg/kg, po or 2 mg/kg, iv; type: ADME, organism-based; settings: in vivo
[10] = Half life in C57BL mouse at 10 mg/kg, po or 2 mg/kg, iv; type: ADME, organism-based; settings: in vivo
[11] = Cmax in C57BL mouse at 10 mg/kg, po or 2 mg/kg, iv; type: ADME, organism-based; settings: in vivo
[12] = Tmax in C57BL mouse at 10 mg/kg, po or 2 mg/kg, iv; type: ADME, organism-based; settings: in vivo
[13] = AUC (0 to infinity) in C57BL mouse at 10 mg/kg, po or 2 mg/kg, iv; type: ADME, organism-based; settings: in vivo
[14] = Oral bioavailability in C57BL mouse at 10 mg/kg; type: ADME, organism-based; settings: in vivo
[15] = test system: MOLM-13; test: cells; settings: Homo sapiens, MOLM-13, 72 h
Description: Antiproliferative activity against human MOLM-13 cells assessed as inhibition of cell viability incubated for 72 hrs by Cell Titer Glo assay

Compound	half-life [1]	half-life [2]	solubility [3]	solubility at 24 h [4]	solubility at 24 h [5]	fraction unbound [6]	fraction unbound [7]	CL free [8]	Vdss [9]	half-life [10]	Cmax [11]	Tmax [12]	AUC(0-inf) [13]	bioavailability [14]	IC50 [15]
CCn1c(CO)nn(-c2cc3c(C(C)C)cn(-c4ccccc4C)c(=O)c3cc2F)c1=O	> 3 h	> 3 h	371 µM (≈ 162 µg/mL)	25 µg/mL (≈ 57.3 µM)	67 µg/mL (≈ 153 µM)	0.099	0.088	41.4 mL/min/kg	1.64 L/kg	5.68 h	6170 ng/mL	1.67 h	57200 ng·h/mL	125%	
CCn1c(CO)nn(-c2cc3c(C(C)C)cn(-c4c(F)cccc4Cl)c(=O)c3cc2F)c1=O	> 3 h	> 3 h	< 4 µM												
CCn1c(CO)nn(-c2nc3c(C(C)C)nn(-c4ccccc4C)c(=O)c3cc2F)c1=O	> 3 h	> 3 h	133 µM (≈ 58.3 µg/mL)												3.3 nM
CCn1c(CO)nn(-c2cc3c([C@H](C)C(F)(F)F)nn(-c4ccccc4C)c(=O)c3cc2F)c1=O	> 3 h	> 3 h	< 4 µM												1.6 nM
CCn1c(CO)nn(-c2cc3c(C(C)C)nn(-c4c(F)cccc4Cl)c(=O)c3cc2F)c1=O	> 3 h	> 3 h	< 4 µM			0.044	0.025	144 mL/min/kg	1.43 L/kg	5.02 h	5730 ng/mL	1.67 h	50400 ng·h/mL	103%	0.39 nM
CCn1c(CO)nn(-c2cc3c(C(C)C)nn(-c4ccccc4C)c(=O)c3cc2F)c1=O	> 3 h	> 3 h	> 400 µM	78 µg/mL (≈ 178 µM)	99 µg/mL (≈ 226 µM)	0.122	0.134	40.7 mL/min/kg	1.94 L/kg	4.55 h	4260 ng/mL	0.83 h	35100 ng·h/mL	111%	0.72 nM
C=C(C)c1nn(-c2c(F)cccc2Cl)c(=O)c2cc(F)c(-n3nc(CO)n(CC)c3=O)cc12	> 3 h	> 3 h	259 µM (≈ 123 µg/mL)												0.39 nM
CCn1c(CO)nn(-c2cc3c([C@@H](C)C(F)(F)F)nn(-c4ccccc4C)c(=O)c3cc2F)c1=O	2.98 h	> 3 h	< 4 µM												1.4 nM
CCn1c(CO)nn(-c2cc3c(cc2F)c(=O)c(-c2ccccc2C)cn3C(C)C)c1=O	> 3 h	> 3 h	83 µM (≈ 36.2 µg/mL)												9.3 nM
CCn1c(CO)nn(-c2cc3c(cc2F)c(=O)c(-c2c(F)cccc2Cl)cn3C(C)C)c1=O	> 3 h	> 3 h	> 400 µM												29 nM
CCn1c(CO)nn(-c2cc3c(cc2F)C(=O)N(c2ccccc2C)C[C@H]3C(C)C)c1=O															19 nM
CCn1c(CO)nn(-c2cc3c(cc2F)C(=O)N(c2c(F)cccc2Cl)CN3C(C)C)c1=O															0.86 nM
CCn1c(CO)nn(-c2cc3c(C(C)C)cc(-c4ccccc4C)c(=O)n3cc2F)c1=O	2.33 h	> 3 h		43 µg/mL (≈ 98.5 µM)	198 µg/mL (≈ 454 µM)	0.049	0.032	245 mL/min/kg	2.12 L/kg	4.03 h	3210 ng/mL	0.67 h	21800 ng·h/mL	102%	0.72 nM
CCn1c(CO)nn(-c2cc3c(cc2F)C(=O)C(c2ccccc2C)CN3C(C)C)c1=O (configuration not stated)															0.47 nM
CCn1c(CO)nn(-c2cc3c(cc2F)C(=O)N(c2ccccc2C)C[C@@H]3C(C)C)c1=O															8.2 nM
